The text below walks through data of US7459444B2, “Inhibitors of chymase” (Janssen Pharmaceutica N.V., priority 2004, dated 2008).

A short description of data set [1]: Pharmacokinetic assay for evaluation of oral absorption potential. In kind it is in vivo. The conditions noted are these: male Sprague Dawley rats, oral gavage 15 mg/kg in 20% hydroxy-beta-cyclo dextran, plasma, N = 2; for Cmax at 2 h: rat. As for the experimental part: Male Sprague Dawley rats, weighing 250-300 g, were fasted overnight then dosed by oral gavage at a level of 15 mg/kg with a compound. Compounds were formulated in 20% hydroxy-beta-cyclo dextran.
Blood samples (0.5 mL) were collected into lithium heparinized tubes at 0.5, 1.0 and 2.0 h post dose via orbital sinus puncture. Blood samples were centrifuged at 2000 rpm for ˜3 min for cell removal, approximately 200 μL of plasma supernatant was then transferred to a clean vial, frozen then placed on dry ice and delivered to SFBC Analytical Labs, Inc. for analysis.
Plasma samples were prepared as follows. Two hundred microliters of acetonitrile containing 1 μM internal standard was added to 100 μL of plasma to precipitate proteins. Samples were centrifuged at 5000 g for 5 min and supernatant removed for analysis by LC-MS. Two hundred microliters of water was added to adjust sample solvent strength and prevent peak splitting. Calibration standards were prepared by adding appropriate volumes of stock solution directly into plasma and treated identically to collected plasma samples. Calibration standards were prepared in the range of 0.1 to 10 μM for quantitation. LC-MS analysis was performed using MRM (Multiple Reaction Monitoring) detection of characteristic ions for each drug candidate and internal standard.

The target in the next data set is T1, human skin chymase (Homo sapiens, UniProt P23946).
T1 construct: using human skin chymase (Cortex Biochem); purchased Cortex Biochem
T1 sequence (P23946 22-247): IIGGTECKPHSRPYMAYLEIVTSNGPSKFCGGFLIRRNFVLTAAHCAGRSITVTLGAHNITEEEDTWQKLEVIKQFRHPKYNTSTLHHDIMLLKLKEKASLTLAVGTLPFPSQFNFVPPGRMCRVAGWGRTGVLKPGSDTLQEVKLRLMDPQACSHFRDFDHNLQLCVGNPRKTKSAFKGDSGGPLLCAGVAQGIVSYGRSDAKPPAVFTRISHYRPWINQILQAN
Kind of data set: Enzyme-catalyzed hydrolysis assay (chymase inhibition). The conditions noted are these: 10 nM enzyme, 0.7 mM Suc-Ala-Ala-Pro-Phe-pNa, pH 8.0, 37° C., 30 minutes. The data set is classed as biochemical. The procedure: Enzyme-catalyzed hydrolysis rates were measured spectro-photometrically using human skin chymase (Cortex Biochem), a chromogenic substrate (Suc-Ala-Ala-Pro-Phe-pNa) (Bachem) in aqueous buffer (450 mM Tris, 1800 mM NaCl, pH 8.0), and a microplate reader (Molecular Devices). […] Percent inhibition was calculated by comparing the initial reaction slopes of the samples without inhibitor to those with inhibitor. IC50 values were determined using a four parameter fit logistics model. The term “NT” indicates a compound that was not tested.

In general, Cmax refers to the highest concentration seen after dosing. As for `CC(C)(C)C(=O)OCOP(C)(=O)C(C(=O)N/C=C/c1ccc(F)c(F)c1)c1csc2ccc(Cl)cc12` (stereo not drawn) [Cpd 182], the Cmax at 2 h in data set [1] was 11.8 ± 3.26 µM.
`O=C(NC=Cc1ccccc1)C(c1cccc2ccccc12)P1(=O)OCCCO1` (stereo not drawn) [Cpd 178, 2-Naphthalen-1-yl-2-(2-oxo-2l5-[1,3,2]dioxaphosphinan-2-yl)-N-styryl-acetamide]: the highest concentration (Cmax) in data set [1] (read-out: CMax (μM) @ 2 h) was found to be 4.1 ± 0.28 µM.
On to `O=C(N/C=C/c1ccc(F)c(F)c1)C(c1csc2ccc(Cl)cc12)P1(=O)OCCCO1` (stereo not drawn) [Cpd 189, 2-(5-Chloro-benzo[b]thiophen-3-yl)-N-[2-(3,4-difluoro-phenyl)-vinyl]-2-(2-oxo-2,5-[1,3,2]dioxaphosphinan-2-yl)-acetamide], for which the maximum concentration (Cmax) at 2 h in data set [1] was 21.1 ± 2.3 µM.
In data set [1], `CCN(CC)C(=O)COP(=O)(OCC(=O)N(CC)CC)C(C(=O)N/C=C/c1ccccc1)c1cccc2ccccc12` (stereo not drawn) [Cpd 180, (Naphthalen-1-yl-styrylcarbamoyl-methyl)-phosphonic acid didiethylcarbamoylmethyl ester] yielded a maximum concentration (Cmax) at 2 h of less than 0.1 µM.
In turn, `CCN(CC)C(=O)COP(C)(=O)C(C(=O)NC=Cc1ccc(F)c(F)c1)c1csc2ccc(Cl)cc12` (stereo not drawn) [Cpd 185, {(5-Chloro-benzo[b]thiophen-3-yl)-[2-(3,4-difluoro-phenyl)-vinylcarbamoyl]-methyl}-methyl-phosphinic acid diethylcarbamoylmethyl ester] had a Cmax at 2 h in data set [1] of 2.1 ± 0.23 µM.
`CC(C)(C)C(=O)OCOP(=O)(O)C(C(=O)N/C=C/c1ccc(F)c(F)c1)c1csc2ccc(Cl)cc12` (stereo not drawn) [Cpd 187, 2,2-Dimethyl-propionic acid {(5-chloro-benzo[b]thiophen-3-yl)-[2-(3,4-difluoro-phenyl)-vinylcarbamoyl]-methyl}-hydroxy-phosphinoyloxymethyl ester]: the highest level in data set [1] (Cmax at 2 h) was 21.4 ± 11 µM.
Still for that read-out and setting: in the case of `CP(=O)(OCCN)C(C(=O)NC=Cc1ccc(F)c(F)c1)c1csc2ccc(Cl)cc12` (stereo not drawn) [Cpd 184, {(5-Chloro-benzo[b]thiophen-3-yl)-[2-(3,4-difluoro-phenyl)-vinylcarbamoyl]-methyl}-methyl-phosphinic acid 2-amino-ethyl ester] it was 0.1 ± 0.05 µM; in that of `CC(C)(C)C(=O)OCOP(=O)(OCOC(=O)C(C)(C)C)C(C(=O)N/C=C/c1ccc(F)c(F)c1)c1csc2ccc(Cl)cc12` (stereo not drawn) [Cpd 186, 2,2-Dimethyl-propionic acid {(5-chloro-benzo[b]thiophen-3-yl)-[2-(3,4-difluoro-phenyl)-vinylcarbamoyl]-methyl}-(2,2-dimethyl-propionyloxymethoxy)-phosphinoyloxymethyl ester], 20.1 ± 3.5 µM.
Usually IC50 stands for the point on the concentration scale where inhibition reaches its midpoint. Higher therefore signals weaker potency in that assay. For `O=C(Nc1ccc2ccccc2c1)C(c1csc2ccc(-c3ccccc3)cc12)P(=O)(O)O` (stereo not drawn) [Cpd 71, [(5-phenyl-benzo[b]thiophen-3-yl)-(naphthalen-2-ylcarbamoyl)-methyl]-phosphonic acid], 1 ± 0.3 µM corresponded to half-maximal inhibition against human skin chymase (IC50).
Same read-out and setting: in the case of `O=C(Nc1ccc2ccccc2c1)C(c1cccc2c1ccn2-c1ccccc1)P(=O)(O)O` (stereo not drawn) [Cpd 128] it was 7.3 µM; in that of `CN(C(=O)c1cc2ccccc2cc1NC(=O)C(c1cccc2ccccc12)P(=O)(O)O)C1CCCC1` (stereo not drawn) [Cpd 91], 2.32 µM.
Still for that read-out and setting: in the case of `CC(C)n1cc(C(C(=O)Nc2ccc3ccccc3c2)P(=O)(O)O)c2ccccc21` (stereo not drawn) [Cpd 77] it was 1.48 ± 0.45 µM.
At human skin chymase, `O=C(Nc1ccc2ccccc2c1)C(c1cc2ccccc2s1)P(=O)(O)O` (stereo not drawn) [Cpd 140, [(Benzo[b]thiophen-2-yl)-(naphthalen-2-ylcarbamoyl)-methyl]-phosphonic acid] had an IC50 of 9.2 ± 0.73 µM.
On human skin chymase, `O=C(Nc1cc2ccccc2cc1C(=O)N1CCC(c2nc3ccccc3s2)CC1)C(c1cccc2ccccc12)P(=O)(O)O` (stereo not drawn) [Cpd 113] registered a half-maximal inhibitory concentration (IC50) of 4.8 ± 1.69 µM.
Same read-out and setting: in the case of `CP(=O)(O)C(C(=O)N/C=C/c1cccc(F)c1F)c1csc2ccc(Cl)cc12` (stereo not drawn) [Cpd 163] it was 0.017 µM; in that of `O=C(Nc1ccc2ccccc2c1)C(c1csc2ccc(Br)cc12)P(=O)(O)O` (stereo not drawn) [Cpd 23, [(5-Bromo-benzo[b]thiophen-3-yl)-(naphthalen-2-ylcarbamoyl)-methyl]-phosphonic acid], 0.1 ± 0.03 µM.
The compound `O=C(Nc1ccc2c(c1)Cc1ccccc1-2)C(c1cccc2ccccc12)P(=O)(O)O` (stereo not drawn) [Cpd 106] came in with a 50% inhibitory concentration (IC50) at human skin chymase of 4.3 µM.
The same measure, in the same setting: in the case of `O=C(Nc1ccccc1)Oc1cc2ccccc2cc1NC(=O)C(c1cccc2ccccc12)P(=O)(O)O` (stereo not drawn) [Cpd 95, [Naphthalen-1-yl-(3-phenylcarbamoyloxy-naphthalen-2-yl-carbamoyl)-methyl]-phosphonic acid] it was 2.8 µM.
On the same count and under the same terms, in the case of `Cn1cc(C(C(=O)Nc2ccc3ccccc3c2)P(=O)(O)O)c2ccc(Cl)cc21` (stereo not drawn) [Cpd 52] it was 0.48 ± 0.18 µM.
The compound `CC(C)(C)C(=O)OCOP(=O)(O)C(C(=O)N/C=C/c1ccccc1)c1cccc2ccccc12` (stereo not drawn) [Cpd 177] showed a Cmax at 2 h in data set [1] of 2 ± 1.1 µM.
Consider `COc1cc(/C=C/NC(=O)C(c2csc3ccc(Cl)cc23)P(C)(=O)O)cc(OC)c1` (stereo not drawn) [Cpd 168], for which, on human skin chymase, the IC50 is 0.0059 ± 0.01 µM.
`O=C(Nc1ccc2ccccc2c1)C(c1cn(-c2ccccc2)c2ccccc12)P(=O)(O)O` (stereo not drawn) [Cpd 82, [(Naphthalen-2-ylcarbamoyl)-(1-phenyl-1H-indol-3-yl)-methyl]-phosphonic acid] gave an IC50 against human skin chymase of 1.7 ± 0.41 µM.
On the same count and under the same terms, to `O=C(Nc1ccc2ccccc2c1OCC(=O)N1CCC(c2ccccc2)CC1)C(c1cccc2ccccc12)P(=O)(O)O` (stereo not drawn) [Cpd 114, (Naphthalen-1-yl-{1-[2-oxo-2-(4-phenyl-piperidin-1-yl)-ethoxy]-naphthalen-2-ylcarbamoyl}-5 methyl)-phosphonic acid] belongs 4.9 ± 1.34 µM; to `O=C(Nc1ccc2ccccc2c1)C(c1nnn[nH]1)c1csc2ccc(Cl)cc12` (stereo not drawn) [Cpd 88, 2-(5-Chloro-benzo[b]thiophen-3-yl)-n-naphthalen-2-yl-2-(1h-tetrazol-5-yl)-acetamide], 2.04 ± 0.19 µM.
Still for that read-out and setting: to `COC(=O)COc1c(NC(=O)C(c2cccc3ccccc23)P(=O)(O)O)ccc2ccccc12` (stereo not drawn) [Cpd 134, [2-(2-Naphthalen-1-yl-2-phosphono-acetylamino)-naphthalen-1-yloxy]-acetic acid methyl ester] belongs 8.11 ± 4.75 µM; to “({3-[(1-Benzoyl-piperidin-4-ylamino)-methyl]-naphthalen-2-ylcarbamoyl}-naphthalen-1-yl-methyl)-phosphonic acid [Cpd 44]”, 0.35 ± 0.22 µM.
The same measure, in the same setting: to `O=C(Nc1ccc2ncsc2c1)C(c1csc2ccc(Cl)cc12)P(=O)(O)O` (stereo not drawn) [Cpd 30] belongs 0.17 ± 0.01 µM; to `COC(=O)COc1cc2ccccc2cc1NC(=O)C(c1cccc2ccccc12)P(=O)(O)O` (stereo not drawn) [Cpd 123], 6.6 µM; to `O=C(NC=Cc1ccc(C(F)(F)F)cc1)C(c1csc2ccc(Cl)cc12)P(=O)(O)O` (stereo not drawn) [Cpd 81], 1.7 ± 0.21 µM.
In turn, `O=C(Nc1ccc2ccccc2c1)C(c1csc2ccc(Cl)cc12)P(=O)(O)CCCCc1ccccc1` (stereo not drawn) [Cpd 51] returned an IC50 on human skin chymase of 0.46 ± 0.06 µM.
Take `CP(=O)(O)C(C(=O)N/C=C/c1cccc(Br)c1)c1csc2ccc(Cl)cc12` (stereo not drawn) [Cpd 167]: the IC50 at human skin chymase was 0.017 ± 0.04 µM.
Still for that read-out and setting: in the case of `COc1cccc(/C=C/NC(=O)C(c2csc3ccc(Cl)cc23)P(C)(=O)O)c1OC` (stereo not drawn) [Cpd 165] it was 0.078 ± 0.03 µM.
On the same count and under the same terms, to `O=C(Nc1ccccc1)OCc1cc2ccccc2cc1NC(=O)C(c1cccc2ccccc12)P(=O)(O)O` (stereo not drawn) [Cpd 94] belongs 2.75 µM; to `Cn1cc(C(C(=O)Nc2ccc3ccccc3c2)P(=O)(O)O)c2cc(C#N)ccc21` (stereo not drawn) [Cpd 65], 0.84 ± 0.19 µM.
The same measure, in the same setting: in the case of `CP(=O)(O)C(C(=O)N/C=C/c1ccccc1Br)c1csc2ccc(Cl)cc12` (stereo not drawn) [Cpd 164] it was 0.1 ± 0.02 µM; in that of `Nc1nc2ccc(NC(=O)C(c3csc4ccc(Cl)cc34)P(=O)(O)O)cc2s1` (stereo not drawn) [Cpd 69, [(5-Chloro-benzo[b]thiophen-3-yl)-(2-amino-4-benzothioazol-6-ylcarbamoyl)-methyl]-phosphonic acid], 0.93 ± 0.95 µM.
